From the supplement of paper PMC12317010
Counter-ions that a name gives are not always drawn.

Test: collision cross section in nitrogen (drift tube, single-field); higher = larger gas-phase ion size
[1] = ion type: [M+H], ion source: APCI, ion mode: Positive
[2] = ion type: [M+H], ion source: ESI, ion mode: Positive
[3] = ion type: [M+Na], ion source: ESI, ion mode: Positive
[4] = ion type: [M-H], ion source: ESI, ion mode: Negative
[5] = ion type: [M+], ion source: APCI, ion mode: Positive
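Further: chemical standards at 10 µM analysed by drift tube IMS-QTOF MS in about 3.95 torr nitrogen, mean of duplicate injections differing ≤1%, mass error below 10 ppm.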

Compound	collision cross section in nitrogen [1] [Å²]	collision cross section in nitrogen [2] [Å²]	collision cross section in nitrogen [3] [Å²]	collision cross section in nitrogen [4] [Å²]	other results
CC(=O)CC(c1ccccc1)c1c(O)c2ccccc2oc1=O (stereo unspecified) [Sodium warfarin]	167.1	167	178.6	172.5	
CC(=O)CC(c1ccccc1)c1c(O)c2ccccc2oc1=O (stereo unspecified) [Warfarin]	167.4	166.9	179.1	172.2	
Cc1cc(S(=O)(=O)O)ccc1N=Nc1c(O)ccc2ccccc12 [C.I. Acid Orange 8, monosodium salt]				187.1	
Cc1cccc(Nc2cc(Cl)nc(SCC(=O)O)n2)c1C [[4-Chloro-6-(2,3-xylidino)-2-pyrimidinylthio]acetic acid]	175.6	175.5	178.2	171	
CCCSP(=O)(OCC)Oc1ccc(Br)cc1Cl (stereo unspecified) [Profenofos]		169.5	184.3		
Cc1oc(-c2ccccc2)nc1CCOc1ccc(C[C@H](Nc2ccccc2C(=O)c2ccccc2)C(=O)O)cc1 [Farglitazar]	217.4	217.1	224.1	228.5	
N#Cc1c[nH]cc1-c1cccc2c1OC(F)(F)O2 [Fludioxonil]				146.3	
CC1CN(c2ccccc2)NC1=O (stereo unspecified) [4-Methyl-1-phenylpyrazolidin-3-one]					collision cross section in nitrogen [5]: 138 Å²
C=C(C)C(=O)OCCOC1CC2CC1C1C=CCC21 (stereo unspecified) [(Dicyclopentadienyloxy)ethyl methacrylate]			170.7		
O=C1c2ccccc2C(=O)C1c1nc2ccccc2c(Br)c1O [C.I. Disperse Yellow 64]	167.5			171.5	
COc1cccc(C(=O)NN(C(=O)c2cc(C)cc(C)c2)C(C)(C)C)c1C [Methoxyfenozide]			201.9	194.2	
c1ccc2[nH]c(-c3cscn3)nc2c1 [Thiabendazole]	141.6	139.7	152.4	142	
CC(c1cc2ccccc2s1)N(O)C(N)=O (stereo unspecified) [Zileuton]			156.4		
O=c1cc(-c2ccccc2)oc2ccc3ccccc3c12 [5,6-Benzoflavone]	160.8	160.2	181.8		
COc1ccc(-c2coc3cc(O)ccc3c2=O)cc1 [Formononetin]	159.8	160.3	171.4		collision cross section in nitrogen [5]: 156.9 Å²
CCN(Cc1cccc(S(=O)(=O)O)c1)c1ccc(C(=C2C=CC(=[N+](CC)Cc3cccc(S(=O)(=O)[O-])c3)C=C2)c2ccccc2)cc1 [FD&C Green No. 1]		254.3	261.8	261.9	
CCCCCCCCCCCC(=O)OC [Methyl dodecanoate]				158.5	
OCCN(CCO)c1ccccc1 [N-Phenyl diethanolamine]	137.7	137.9			
Clc1cccc(Cl)c1Cl [1,2,3-Trichlorobenzene]			144.8		
CC(c1ccc(O)cc1)(c1ccc(O)cc1)c1ccc(O)cc1 [4,4',4''-Ethane-1,1,1-triyltriphenol]				184.3	
CC(=O)Nc1ccc(N=Nc2cc(C)ccc2O)cc1 [C.I. Disperse Yellow 3]	167.8	168.2		168.7	

Compound	collision cross section in nitrogen [1] [Å²]	collision cross section in nitrogen [2] [Å²]	collision cross section in nitrogen [3] [Å²]	collision cross section in nitrogen [4] [Å²]	other results
CCCCCCCCCCCCCC(=O)OC(CO)CO [2-Myristoyl glycerol]			183.7		
CCCCOCCOC(=O)COc1ccc(Cl)cc1Cl [2,4-D-Butotyl]			177		
CCCCCCCCC=CCCCCCCCC(=O)OCCO [Poly(oxyethylene) monoleate]				186.1	
C=CC(=O)OCC1CC2CC1C1CCC(COC(=O)C=C)C21 (stereo unspecified) [Tricyclodecanedimethanol diacrylate]			176.9		
Nc1ccc2cc(S(=O)(=O)O)ccc2c1 [6-Aminonaphthalene-2-sulfonic acid]				150.3	
CN(C)CCN(Cc1cccs1)c1ccccn1 [Methapyrilene hydrochloride]	157.6	157.6	160.1		
CC(C)COC(=O)CCCCC(=O)OCC(C)C [Diisobutyl adipate]			179.8		
CNC(=O)N(C)c1nnc(C(C)(C)C)s1 [Tebuthiuron]	150.4	150.5	162.9		
CC1=NN(c2ccccc2)C(=O)C1 [1-Phenyl-3-methyl-5-pyrazolone]		137.7		137.8	
Nc1c(S(=O)(=O)O)cc(Nc2ccccc2)c2c1C(=O)c1ccccc1C2=O [Acid Blue 25]		190.2		191.1	
CN(C)CCOCCN(C)CCO [2-[{2-[2-(Dimethylamino)ethoxy]ethyl}(methyl)amino]ethanol]	138.5	138.3	144		
Nc1ccc2c(O)cc(S(=O)(=O)O)cc2c1 [7-Amino-4-hydroxynaphthalene-2-sulfonic acid]				153.3	
CC(C)c1cccc(C(C)C)c1N1C(=O)c2ccc(O)cc2C1=O [2-(2,6-Diisopropylphenyl)-5-hydroxy-1H-isoindole-1,3-dione]				182	
CC(=O)Nc1c(I)c(NC(C)=O)c(I)c(C(=O)O)c1I [Diatrizoate sodium]		175.5	179.4		
C=C(C)C(=O)OCCOC(=O)CC(C)=O [2-(Methacryloyloxy)ethyl acetoacetate]			147.6		
NC(N)=Nc1nc(CSCCC(N)=NS(N)(=O)=O)cs1 [Famotidine]	168.7	168.9	174.3	169.4	
CCCCNC(=O)NS(=O)(=O)c1ccc(N)cc1 [Carbutamide]			175.6	165	
C=CC(=O)OCC(C)OCC(C)OCC(C)OC(=O)C=C (stereo unspecified) [Tripropylene glycol diacrylate]			169.9		
CC(C)(C)c1ccc(O)cc1 [4-(1,1-Dimethylethyl)phenol]				139.5	
CCOc1cc([N+](=O)[O-])c(OCC)cc1N1CCOCC1 [4-(2,5-Diethoxy-4-nitrophenyl)morpholine]	173.1	173.2			
OCc1cccnc1 [Nicotinyl alcohol]	119.2	119.8			

Compound	collision cross section in nitrogen [1] [Å²]	collision cross section in nitrogen [2] [Å²]	collision cross section in nitrogen [3] [Å²]	collision cross section in nitrogen [4] [Å²]	other results
Cc1ccc2[nH]c3cc4c(=O)c5cc(C)ccc5[nH]c4cc3c(=O)c2c1 [C.I. Pigment Red 122]	183.4			185.7	
CC(C)(C)c1cccc(O)c1 [3-tert-Butylphenol]				136.9	
Cc1cc(-c2ccc(N)c(C)c2)ccc1N [3,3'-Dimethylbenzidine]	166.1	166.5			collision cross section in nitrogen [5]: 150.8 Å²
O=C(O)Cc1cc(I)c(Oc2cc(I)c(O)c(I)c2)c(I)c1 [Tetrac]				203.1	
C=C(C)C(=O)OCCOP(=O)(O)OCCOC(=O)C(=C)C [Bis(methacryloyloxyethyl) hydrogen phosphate]			169.5		
CN(C)c1ccc(/N=N/c2ccccc2C(=O)O)cc1 [Methyl red]	163.1	163	179.2	175.2	
CCOC(=O)C(C#N)=C(c1ccccc1)c1ccccc1 [Ethyl 2-cyano-3,3-diphenylacrylate]			180.6		
O=C(O)CCCOC(=O)c1ccccc1C(=O)O [Mono(3-carboxypropyl)phthalate]			156.3		
O=C(O)c1c(Cl)ccc2cc(Cl)cnc12 [Quinclorac]		142.6			
CC(=O)Nc1ccccc1O [2-Hydroxyacetanilide]				130.2	
c1coc(-c2nc3ccccc3[nH]2)c1 [Fuberidazole]	136.1	136.8		138	
C[C@H]1C(=O)O[C@@H]2CCN3CC=C(COC(=O)[C@](C)(O)[C@]1(C)O)[C@H]23 [Monocrotaline]	175.4	175.3	178.6		
CNC(=C[N+](=O)[O-])NCCSCc1ccc(CN(C)C)o1 [Ranitidine]	169.2	169	176.2	179.5	
CCCCCCCCCC(=O)O [Decanoic acid]				149.5	
NS(=O)(=O)c1ccccc1Cl [2-Chlorobenzenesulfonamide]				133.5	
CO/N=C(/C1=NOCCO1)c1ccccc1Oc1ncnc(Oc2ccccc2Cl)c1F [Fluoxastrobin]	204.8	204.3	208.1		
Cc1ccc(S(=O)(=O)O)cc1 [4-Methylbenzenesulfonic acid hydrate]				134.4	
Nc1cc([N+](=O)[O-])ccc1Cl [2-Chloro-5-nitroaniline]				125.5	
CCCCCCCC[N+](C)(CCCCCCCC)CCCCCCCC [Methyltrioctylammonium chloride]					collision cross section in nitrogen (ion source: APCI, ion mode: Positive, ion type: [M]+ (permanent cation)): 222.2 Å²; collision cross section in nitrogen (ion source: ESI, ion mode: Positive, ion type: [M]+ (permanent cation)): 221.8 Å²
O=C(Oc1ccc(O)cc1)c1ccccc1 [4-Hydroxyphenyl benzoate]				154.7	
